Assay results from US20210267984A1, “APPLICATION OF ALLOPURINOL IN PREPARATION OF DRUG FOR TREATING CANCER WITH HIGH EXPRESSION OF PAICS GENE” (priority 2018, published 2021).

Key:
[1] = system: Bladder Urothelial Carcinoma; test: Anti-cancer effect of allopurinol (cell biology screening combined with animal experiments); details: BLCA; PAICS abnormally high expression
Excerpt: (§1) This property of allopurinol is different from those of most chemotherapeutic drugs.

[2] = system: Breast invasive carcinoma; test: as above; details: BRCA; PAICS abnormally high expression
Excerpt: as §1

[3] = system: Cervical squamous cell carcinoma and endocervical adenocarcinoma; test: as above; details: CESC; PAICS abnormally high expression
Excerpt: as §1

Cholangiocarcinoma = test: as above; details: CHOL; PAICS abnormally high expression
Excerpt: as §1

Colon adenocarcinoma = test: as above; details: COAD; PAICS abnormally high expression
Excerpt: as §1

Esophageal carcinoma = test: as above; details: ESCA; PAICS abnormally high expression
Excerpt: as §1

Glioblastoma multiforme = test: as above; details: GBM; PAICS abnormally high expression
Excerpt: as §1

[4] = system: Head and Neck squamous cell carcinoma; test: as above; details: HNSC; PAICS abnormally high expression
Excerpt: as §1

[5] = system: Liver hepatocellular carcinoma; test: as above; details: LIHC; PAICS abnormally high expression
Excerpt: as §1

Lung adenocarcinoma = test: as above; details: LUAD; PAICS abnormally high expression
Excerpt: as §1

[6] = system: Lung squamous cell carcinoma; test: as above; details: LUSC; PAICS abnormally high expression
Excerpt: as §1

[7] = system: Pancreatic adenocarcinoma; test: as above; details: PAAD; PAICS abnormally high expression
Excerpt: as §1

Prostate adenocarcinoma = test: as above; details: PRAD; PAICS abnormally high expression
Excerpt: as §1

Rectum adenocarcinoma = test: as above; details: READ; PAICS abnormally high expression
Excerpt: as §1

Stomach adenocarcinoma = test: as above; details: STAD; PAICS abnormally high expression
Excerpt: as §1

[8] = system: Uterine Corpus Endometrial Carcinoma; test: as above; details: UCEC; PAICS abnormally high expression
Excerpt: as §1

[9] = system: cancer with abnormally high expression of the PAICS gene; test: Anti-cancer and therapeutic effect, cancers with abnormally high PAICS expression
Excerpt: as §1

[10] = system: cancers with non-abnormally high expression of the PAICS gene; test: Therapeutic effect, cancers with non-abnormally high PAICS expression; details: cancers with non-abnormally high PAICS expression such as renal cancer, skin cutaneous melanoma, pheochromocytoma and paraganglioma
Excerpt: as §1

Bel-7402 = details: data of CN102746306A; cited from earlier work
SMMC-7221 = details: data of CN102746306A; cited from earlier work

Compound: Oc1ncnc2[nH]ncc12 [allopurinol, Allopurinol]
- Anti-cancer effect of allopurinol [1]: Significant
- Anti-cancer effect of allopurinol [2]: Significant
- Anti-cancer effect of allopurinol [3]: Significant
- Anti-cancer effect of allopurinol (Cholangiocarcinoma): Significant
- Anti-cancer effect of allopurinol (Colon adenocarcinoma): Significant
- Anti-cancer effect of allopurinol (Esophageal carcinoma): Significant
- Anti-cancer effect of allopurinol (Glioblastoma multiforme): Significant
- Anti-cancer effect of allopurinol [4]: Significant
- Anti-cancer effect of allopurinol [5]: Significant
- Anti-cancer effect of allopurinol (Lung adenocarcinoma): Significant
- Anti-cancer effect of allopurinol [6]: Significant
- Anti-cancer effect of allopurinol [7]: Significant
- Anti-cancer effect of allopurinol (Prostate adenocarcinoma): Significant
- Anti-cancer effect of allopurinol (Rectum adenocarcinoma): Significant
- Anti-cancer effect of allopurinol (Stomach adenocarcinoma): Significant
- Anti-cancer effect of allopurinol [8]: Significant
- anti-cancer and therapeutic effects [9]: significant anti-cancer and therapeutic effects
- therapeutic effect [10]: no significant therapeutic effect
- anti-tumor activity (Bel-7402): no anti-tumor activity
- anti-tumor activity (SMMC-7221): no anti-tumor activity
